Values quoted from earlier work as cited in US7682636B2 (Metaproteomics, LLC, priority 2001, dated 2010).

What was measured:
[1] = tested on: osteoarthritis of the knee in outpatients; conditions: 1500 mg glucosamine sulfate per day versus 1200 mg ibuprofen
COX-2 over COX-1 = conditions: reported, background

SMILES	pain scores [1]	COX-2 specificity (COX-2 over COX-1)
N[C@H]1C(O)O[C@H](CO)[C@@H](O)[C@@H]1O.O=S(=O)(O)O (stereo partly drawn) [glucosamine, glucosamine sulfate]	difference between the two groups turned significantly in favor of glucosamine by week eight	
CC(C)Cc1ccc(C(C)C(=O)O)cc1 (stereo not drawn) [ibuprofen]	pain scores decreased faster during the first two weeks in the ibuprofen patients than in the glucosamine-treated patients	
CC(=O)Oc1ccccc1C(=O)O [aspirin]		0.6
